The nature of assay [1]: Measurement of unsaturated bond formation (lyase activity) using absorbance at 232 nm. The note with it: 0.2% heparin, measured every 10 minutes for 1 hour, FIG. 1. Type of assay: biochemical. On the procedure:
Measurement of Unsaturated Bond Formation Using Absorbance at 232 nm:
Reactions were prepared in 1 ml quartz cuvettes. For heparinase I [Lavobacterium heparinum, Sigma, Cat. No. H2519], 3 units enzyme were added to a reaction mixture A (18 mM Tris buffer pH 7.5, 45 mM NaCl, 4 mM CaCl2, 0.01% BSA) containing 0.2% heparin. For recombinant heparanase (expressed in insect cells, see, U.S. patent application Ser. Nos. 08/922,170; 09/071,618; 09/109,386; 09/258,892 and 09/260,038 and in PCT/US98/17954 and PCT/US98/09256, all of which are incorporated herein by reference), 5 mg enzyme were added to a reaction mixture B (20 mM phosphate citrate buffer pH 5.4, 1 mM CaCl2, 1 mM NaCl and 0.01% BSA) containing 0.2% heparin. Absorbance at 232 nm was measured in a Cary 100 (Varian) spectrophotometer every 10 minutes for a period of 1 hour.
Partially purified recombinant human heparanase expressed in insect cells was examined to determine whether it is a lyase or hydrolase. A bacterial heparinase I which is a lyase was used as a control. The formation of an unsaturated bond by lyase activity as measured by 232 nm absorbance was performed as described under experimental procedures above.

Another assay deals with B16 melanoma. The note with it: lung metastases induced by B16 melanoma, experimental animals; cited from earlier work.
Another assay deals with Lewis lung carcinoma. The note with it: lung metastases induced by Lewis lung carcinoma, experimental animals; cited from earlier work.
Assay [2] deals with mammary adenocarcinoma cells. The note with it: lung metastases induced by mammary adenocarcinoma cells, experimental animals; cited from earlier work.

Where only a bound is given, the exact number is not on record here.

Take heparinase I: the “lyase activity: 232 nm absorbance (formation of Δ4,5 unsaturated bond of heparin)” value in assay [1] is listed as “linear increase”.

As to laminarin sulfate, the “reduction of the incidence of lung metastases” value (with B16 melanoma; in the assay with Lewis lung carcinoma; in assay [2]) was > 90% each time.

(Values after patent US20020009782A1, “Heparin and heparan sulfate derived oligosaccharides and a method for their manufacture” (priority 1999, published 2002).)
